Read-outs that look alike come from different tables or passages of the source.
How the values were obtained:
malaria = conditions: mice infected with malaria; 4-day successive treatment, peritoneal administration 5 mg/kg/day; cited from earlier work
Plasmodium falciparum W2 = conditions: in vitro; cited from earlier work
[1] = system: Plasmodium Falciparum K1 strain; assay: in vitro growth-inhibiting screening assay, chloroquine-resistant falciparum malaria; type: cell-based
Procedure: Plasmodium Falciparum K1 strain was used as a chloroquine-resistant protozoa of falciparum malaria. RMI-1640 sterilized by filtration was supplemented with human serum of a final concentration of 5% to be used as a culture medium. The malaria protozoa were cultured under O2 concentration of 3%, CO2 concentration of 4%, N2 concentration of 93% at 37° C.
A test sample was prepared by dissolving the test compounds according to the present invention and a positive control drug (chloroquine) in DMSO to a predetermined concentration. The erythrocytes infected with the cultured malaria protozoa were collected by centrifugation and so diluted with non-infected erythrocytes to have an initial infection ratio of 0.15%. The hematocrit value was then 2.5%. Culture mixture of the above malaria-infection culture medium (200 μL) was placed into each well of a 96-well culture plate, and the test sample comprising the predetermined amount of the test compound, and DMSO without the test compound were added to the wells in duplicate.
After culture for 48 hours at 37° C., hypoxanthine labeled with radioactive tritium (^3H) of 0.5 μCi was added to each well. After the culture in the same conditions for further 24 hours, the sample was taken on a glass fiber filter and washed with distilled water. Intensity of radiation was measured by means of plate liquid scintillation counter (Wallac Co.), and an infection ratio of the protozoa of malaria was calculated with respect to a group treated with the test sample and the control. A growth-inhibiting ratio was then calculated from the resulting infection ratio in accordance with the following equation to determine 50% growth-inhibiting concentration (EC50).
Growth-inhibiting ratio (%)=[1−(b−a)/(c−a)]×100 • a: Initial infection ratio; • b: Infection ratio of the test sample group; and • c: Infection ratio of the control group. In vitro Growth-Inhibiting Assay of Rat L6 Cells
Anti-malaria effect of the samples was assessed by their EC50 values for the chloroquine-resistant protozoa of falciparum malaria and the rat L6 cell. A chemotherapy coefficient, which is used as an index for the selective toxicity for the chloroquine-resistant protozoa of falciparum malaria was calculated by the following equation, and the pharmaceutical effect was determined.
Chemotherapy coefficient=(EC50 value of the test sample for rat L6 cell)/(EC50 value of the test sample for the chloroquine-resistant protozoa of falciparum malaria)

[2] = system: Plasmodium berghei NK65 strain; assay: in vivo 4-day suppressive test, intraperitoneal administration, mouse infected with malaria; conditions: 4 days
Procedure: This test was carried out in accordance with 4-day suppressive test that is a general in vivo test for the activity of an anti-malaria compound. Rodent malaria protozoa (Plasmodium berghei NK65 strain) were used in this test. Infected blood was prepared by infection with intraperitoneal administration into ICR male mouse (5 weeks age; SPF) and passage culture (subculture) thereafter. Blood was drawn from the vein of a tail of the moue infected with malaria, and its infection ratio was determined. After it was confirmed that the infection ratio had been increased up to an appropriated level (10˜20%), the blood infected with malaria was drawn from the heart of the mouse. The infection ratio and number (cells/mL) of erythrocytes were determined. An uninfected mouse (ICR male, 5 weeks age) was then infected with an injection of the infected erythrocytes so diluted with PBS as to comprise the protozoa of […] per dose (0.2 mL) into the vein of its tail.
A test sample was prepared by dissolving the test compounds according to the present invention into physiologic saline (Otsuka Pharmaceuticals Industries) to a predetermined concentration. In the case where the compound was insoluble in water, it was dissolved into DMSO or Tween 20 to prepare the test sample. A control group (no drug-administration group) was treated only with physiologic saline. […]
One group consisted of five mice. The intraperitoneal administration of the test sample started after two hours from the infection with malaria and continued for successive 4 days with a 24-hour interval. After 24 hours from the last administration, blood was drawn from the tail of the infected mouse to prepare a thin-layer smear, and the number of the erythrocytes infected with the malaria protozoa under a microscope with respect to the control group and the test sample groups. Parasitemia, i.e., the infection ratio with the malaria protozoa, was obtained by calculating an average value of the medium three mice except the two mice showing a maximum or minimum inhibition level. A cure rate (suppression) was then calculated from the resulting parasitemia in accordance with the following equation.
Cure rate: suppression (%)=(b−a)/b×100 • a: Infection ratio of the test sample group; and • b: Infection ratio of the control group.

[3] = system: Rat L6 cell (rat skeletal myoblast cell); assay: in vitro growth-inhibiting assay of rat L6 cells; type: cell-based
Procedure: Rat L6 cell (rat skeletal myoblast cell) was cultured in RPMI-1640 culture medium supplemented with 1% of L-glutamine (200 mM) and fetal calf serum (10%) under 5% CO2 concentration at 37° C. A test sample was prepared by dissolving the test compounds according to the present invention and a positive control drug in DMSO to a predetermined concentration. After pre-culture had been finished, the culture medium containing the cells in a logarithmic phase was placed into each well of a 96-well culture plate, and the test sample comprising the predetermined amount of the test compound, and DMSO without the test compound were added to the wells in duplicate.
After incubation of the culture plate for 72 hours in an incubator, a growth-inhibiting activity was assayed as follows. Alamar Blue aqueous solution (10 μL) was added to each well followed by a further two-hour culture. The culture plate was then attached to a fluorescence micro titer plate reader (Spectramax Gemeni XS; U.S. Molecular Device Co.), and the intensity of fluorescence at 588 nm was detected with an excitation wave length of 536 nm. A residual ratio of L6 cells was calculated with respect to a group treated with the test sample and a control group. A growth-inhibiting ratio for L6 cells was then calculated from the resulting residual ratio in accordance with the following equation to determine 50% growth-inhibiting concentration (EC50).
Growth-inhibiting ratio (%)=[1−(C−A)/(B−A)]×100 • A: Initial number of cells; • B: Number of the cells in the control after 3 days; and • C: Number of the cells treated with the test sample after 3 days Determination of Pharmaceutical effect for Chloroquine-Resistant Malaria

[4] = system: Leishmania donovani (MHOM/ET/67/L82 strain); assay: in vitro growth-inhibiting screening assay, protozoa of Leishmaniasis; type: cell-based; conditions: Leishmania donovani; amastigotes; 72 h, Alamar Blue; read-out: growth-inhibiting concentration (nM) Leishmania donovani
Procedure: This test was done using the protozoa of Leishmania donovani (MHOM/ET/67/L82 strain). The protozoa were subcultured using Syrian Golden hamster and an amastigote was obtained therefrom. The amastigotes were cultured in SM medium supplemented with 10% of heat-treated fetal calf serum (pH 5.4) under CO2 concentration of 5%, at 37° C.
A test sample was prepared by dissolving the test compounds according to the present invention and a positive control drug (Miltefosine) in DMSO to a predetermined concentration. Culture medium containing a predetermined number of the protozoa was added into each well of a 96-well culture plate, and the concentration of the amastigotes was measured by means of CASY cell analysis system (Dermany, Scharfe Co.). Test sample comprising the predetermined amount of the test compound, and DMSO without the test compound were added to the wells in duplicate.
After incubation of the culture plate for 72 hours in an incubator, a growth-inhibiting activity was assayed as follows. Alamar Blue aqueous solution (10 μL) was added to each well followed by a further two-hour culture. The culture plate was then attached to a fluorescence micro titer plate reader (Spectramax Gemeni XS; U.S. Molecular device Co.), the intensity of fluorescence at 588 nm was detected with excitation wave length of 536 nm to calculate an infection ratio of the protozoa with respect to a group trated with the test sample and a control group. A growth-inhibiting ratio was then calculated from the resulting infection ratio in accordance with the following equation to determine 50% growth-inhibiting concentration (EC50).
(§1) Growth-inhibiting ratio (%)=[1−(b−a)/(c−a)]×100 • a: Initial infection ratio; • b: Infection ratio of the test sample group; and • c: Infection ratio of the control group.
A selective toxicity coefficient, which is used as an index for the selective toxicity for the protozoa of Leishmaniasis, was calculated by the following equation, and the pharmaceutical effect was determined.
A selective toxicity coefficient=(EC50 value of the test sample for rat L6 cell)/(EC50 value of the test sample for the protozoa of Leishmaniasis).

[5] = system: Trypanosoma cruzi (Tulahuen C2C4 strain); assay: in vitro growth-inhibiting screening assay, protozoa of American trypanosomiasis; type: cell-based; conditions: Trypanosoma cruzi, TULAHUEN; in infected rat L6 cells; 96 h, CPRG/Nonidet; read-out: 50% growth-inhibiting concentration (nM) Trypanosoma cruzi
Procedure: The test was done using a trypomastigote and an amastigote of the protozoa of Trypanosoma cruzi (Tulahuen C2C4 strain) present in the infected rat L6 cells. The L6 cells were cultured in RPMI-1640 medium supplemented with 1% of […] (200 mM) and 10% of fetal calf serum under CO2 concentration of 5%, at 37° C.
A test sample was prepared by dissolving the test compounds according to the present invention and a positive control drug (benznidazole) in DMSO to a predetermined concentration. Culture medium containing the protozoa of 5×10^3 was added into each well of 96-well culture plate and cultured for 48 hours. After the medium was exchanged, the test sample comprising the predetermined amount of the test compound, and DMSO without the test compound were added into each well in duplicate.
After incubation of the culture plate for 96 hours in an incubator, a growth-inhibiting activity was assayed as follows. CPRG/Nonidet (50 μL) was added to each well followed by a further 2˜6-hour culture. The culture plate was then attached to an absorption micro titer plate reader, the absorbance at 540 nm was detected to calculate an infection ratio of the protozoa with respect to a group treated with the test sample and a control group. A growth-inhibiting ratio was then calculated from the resulting infection ratio in accordance with the following equation to determine 50% growth-inhibiting concentration (EC50).
as §1
A selective toxicity coefficient, which is used as an index for the selective toxicity for the protozoa of American trypanosomiasis, was calculated by the following equation, and the pharmaceutical effect was determined.
A selective toxicity coefficient=(EC50 value of the test sample for rat L6 cell)/(EC50 value of the test sample for the protozoa of American trypanosomiasis).

[6] = chloroquine-resistant strain, 72 h culture, 3H-hypoxanthine, read-out: 50% growth-inhibiting concentration (nM) P. falciparum K1
[7] = Table 3, 72 h, Alamar Blue, read-out: 50% growth-inhibiting concentration (nM) cytotoxicity L6

CNc1ccc2nc3ccc(=[N+](C)C)cc-3sc2c1.[Cl-] [Azure B]
Suppression(%) (malaria): 9.1% | EC50 (Plasmodium falciparum W2): 12.7 ± 7.36 nM

CCN(CC)CCCC(C)Nc1ccnc2cc(Cl)ccc12 (stereo not shown) [Chloroquine, reference compound]
EC50 ([1]; Plasmodium falciparum, K1, read-out: 50% growth-inhibiting concentration (nM) P. falciparum K1): 150 nM

CN(C)c1ccc2nc3ccc(=[N+](C)C)cc-3oc2c1.[O-][Cl+3]([O-])([O-])[O-] [Compound A-2]
Parasitaemia suppression (%) ([2]; 5 mg/kg/day intraperitoneal): 45.9%

CC[N+](CC)=c1ccc2nc3ccc(N(C)C)cc3oc-2c1.[O-][Cl+3]([O-])([O-])[O-] [Compound A-5]
Parasitaemia suppression (%) ([2]; 5 mg/kg/day intraperitoneal): 77.0%

CCN(C)c1ccc2nc3ccc(N(C)C)cc3[o+]c2c1.[O-][Cl+3]([O-])([O-])[O-] [Compound A-9, 3-ethylmethylamino-7-dimethylamino phenoxazinium perchlorate]
Cure rate (%) ([2]; 5 mg/kg/day intraperitoneal): 71.7%

CN(C)c1ccc2nc3ccc(N4CCNCC4)cc3[o+]c2c1.Cl.[Cl-] [Compound A-11, 3-dimethylamino-7-(1-piperazino) phenoxazinium chloride mono-hydrochloride salt]
EC50 [1, 6]: 27.5 nM | Parasitaemia suppression (%) ([2]; 5 mg/kg/day intraperitoneal): 54.8% | Parasitaemia suppression (%) ([2]; Table 5, 5.0 mg/kg/day intraperitoneal): 54.8% | Parasitaemia suppression (%) ([2]; Table 5, 10 mg/kg/day intraperitoneal): 78.5% | Parasitaemia suppression (%) ([2]; Table 5, 20 mg/kg/day intraperitoneal): 98.1% | Parasitaemia suppression (%) ([2]; Table 5, 30 mg/kg/day intraperitoneal): >99.99% | EC50 [3]: 63800 nM

CN1CCN(c2cc(O)c3nc4ccc(=[N+](C)C)cc-4oc3c2)CC1.Cl.[Cl-] [Compound A-14]
EC50 [1, 6]: 196 nM | Parasitaemia suppression (%) ([2]; 5 mg/kg/day intraperitoneal): 17.4% | EC50 [3, 7]: 86400 nM

C[N+](C)=c1ccc2nc3c(O)cc(N4CCN(CCO)CC4)cc3oc-2c1 [Compound A-15]
EC50 [1, 6]: 191 nM | EC50 [3, 7]: 74600 nM

CCOC(=O)N1CCN(c2cc(O)c3nc4ccc(=[N+](C)C)cc-4oc3c2)CC1.[Cl-] [Compound A-17]
Parasitaemia suppression (%) ([2]; 5 mg/kg/day intraperitoneal): 38.6%

CC(=O)Oc1cc(N2CCN(C)CC2)cc2oc3cc(=[N+](C)C)ccc-3nc12.Cl.[Cl-] [Compound A-19]
Parasitaemia suppression (%) ([2]; 5 mg/kg/day intraperitoneal): 21.4%

C[N+](C)=c1ccc2nc3c(C(=O)O)cc(O)c(O)c3oc-2c1.[Cl-] [Gallocyanine]
Suppression(%) (malaria): 15.6% | EC50 (Plasmodium falciparum W2): 674 ± 159 nM

CN(C)c1ccc2nc3ccc(=[N+](C)C)cc-3sc2c1.[Cl-] [Methylene Blue]
Suppression(%) (malaria): 15.9% | EC50 (Plasmodium falciparum W2): 3.99 ± 2.31 nM

CCCCCCCCCCCCCCCCOP(=O)([O-])OCC[N+](C)(C)C [Miltefosine, reference compound]
EC50 [4]: 280 nM

Cc1cc2nc3cc(C)c(N)cc3[n+](-c3ccccc3)c2cc1N.[Cl-] [Safranine O]
Suppression(%) (malaria): 14.0% | EC50 (Plasmodium falciparum W2): 34.8 ± 17.2 nM

O=C(Cn1ccnc1[N+](=O)[O-])NCc1ccccc1 [benznidazole, reference compound]
EC50 [5]: 870 nM

From patent publication US20090036437A1, “PHARMACEUTICAL COMPOSITION COMPRISING PHENOXAZINIUM COMPOUND AS AN ACTIVE INGREDIENT” (priority 2005, published 2009)
